# Data taken from PubChem BioAssay (NCI).
# Values joined by “and” are separate entries in the source; they are usually repeats but may differ in a detail not shown here. Identical values can stand only once.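 Results reflect a 48-hour exposure of cells in 96-well plates to compound at five concentrations. GI50 = concentration required for 50% inhibition of growth. TGI is the concentration that stops growth completely.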
# How the values were obtained:
# Assay in all cases: NCI anticancer screen, dose series, 48 h
# CCRF-CEM leukemia = test system: CCRF-CEM leukemia
# HL-60(TB) leukemia = test system: HL-60(TB) leukemia
# NCI-H226 lung = test system: NCI-H226 lung
# PC-3 prostate = test system: PC-3 prostate
# RXF 393 renal = test system: RXF 393 renal
# HS 578T breast = test system: HS 578T breast
# U251 CNS = test system: U251 CNS
# SNB-19 CNS = test system: SNB-19 CNS
# BT-549 breast = test system: BT-549 breast
# SNB-75 CNS = test system: SNB-75 CNS
# SW-620 colon = test system: SW-620 colon
# MALME-3M melanoma = test system: MALME-3M melanoma
# KM12 colon = test system: KM12 colon
# HOP-92 NSCLC = test system: HOP-92 NSCLC
# SK-MEL-2 melanoma = test system: SK-MEL-2 melanoma
# M14 melanoma = test system: M14 melanoma
# OVCAR-8 ovarian = test system: OVCAR-8 ovarian
# SK-MEL-28 melanoma = test system: SK-MEL-28 melanoma
# MDA-MB-435 = test system: MDA-MB-435
# SF-539 CNS = test system: SF-539 CNS
# LOX IMVI melanoma = test system: LOX IMVI melanoma
# A498 renal = test system: A498 renal
# HCT-15 colon = test system: HCT-15 colon
# TK-10 renal = test system: TK-10 renal
# OVCAR-5 ovarian = test system: OVCAR-5 ovarian
# UACC-257 melanoma = test system: UACC-257 melanoma
# 786-0 renal = test system: 786-0 renal
# HOP-62 NSCLC = test system: HOP-62 NSCLC
# HCT-116 colon = test system: HCT-116 colon
# DU-145 prostate = test system: DU-145 prostate
# MDA-MB-231 breast = test system: MDA-MB-231 breast
# SN12C renal = test system: SN12C renal
# MOLT-4 leukemia = test system: MOLT-4 leukemia
# EKVX NSCLC = test system: EKVX NSCLC
# SK-MEL-5 melanoma = test system: SK-MEL-5 melanoma
# SF-295 CNS = test system: SF-295 CNS
# NCI-H522 lung = test system: NCI-H522 lung
# UACC-62 melanoma = test system: UACC-62 melanoma
# OVCAR-4 ovarian = test system: OVCAR-4 ovarian
# NCI-H460 lung = test system: NCI-H460 lung
# OVCAR-3 ovarian = test system: OVCAR-3 ovarian
# SF-268 CNS = test system: SF-268 CNS
# IGROV1 ovarian = test system: IGROV1 ovarian
# ACHN renal = test system: ACHN renal
# UO-31 renal = test system: UO-31 renal
# RPMI-8226 leukemia = test system: RPMI-8226 leukemia
# T-47D breast = test system: T-47D breast
# HT29 colon = test system: HT29 colon
# HCC-2998 colon = test system: HCC-2998 colon
# COLO 205 colon = test system: COLO 205 colon
# NCI-H23 lung = test system: NCI-H23 lung
# A549 NSCLC = test system: A549 NSCLC
# NCI/ADR-RES ovarian = test system: NCI/ADR-RES ovarian
# SK-OV-3 ovarian = test system: SK-OV-3 ovarian
# SR leukemia = test system: SR leukemia
# CAKI-1 renal = test system: CAKI-1 renal
# K-562 leukemia = test system: K-562 leukemia
compound,measurement,setting,value
Oc1c(Cl)c(Cl)c(Cl)c(Cl)c1Cl (tested in a mixture with another compound),TGI,CCRF-CEM leukemia,62.3 µM
same,TGI,HL-60(TB) leukemia,39 µM and 10 µM
same,TGI,NCI-H226 lung,41.7 µM
C=C1C(=O)O[C@H]2[C@H]1CC/C(COC(=O)OC/C1=C/CC[C@@]3(C)O[C@H]3[C@H]3OC(=O)[C@@H](CN(C)C)[C@@H]3CC1)=C\CC[C@@]1(C)O[C@@H]21,GI50,PC-3 prostate,2.7 µM
same,TGI,PC-3 prostate,7.89 µM
same,GI50,RXF 393 renal,0.306 µM
same,TGI,RXF 393 renal,1.35 µM
same,GI50,HS 578T breast,4.39 µM
same,TGI,HS 578T breast,26.9 µM
same,GI50,U251 CNS,3.3 µM
same,TGI,U251 CNS,12.5 µM
same,GI50,SNB-19 CNS,4.67 µM
same,TGI,SNB-19 CNS,18.3 µM
same,GI50,BT-549 breast,1.41 µM
same,TGI,BT-549 breast,2.8 µM
same,GI50,SNB-75 CNS,4.89 µM
same,TGI,SNB-75 CNS,25.1 µM
same,GI50,SW-620 colon,0.445 µM
same,TGI,SW-620 colon,1.85 µM
same,GI50,MALME-3M melanoma,1.26 µM
same,TGI,MALME-3M melanoma,3.12 µM
same,GI50,KM12 colon,5.49 µM
same,TGI,KM12 colon,18.7 µM
same,GI50,HOP-92 NSCLC,0.497 µM
same,TGI,HOP-92 NSCLC,1.98 µM
same,GI50,SK-MEL-2 melanoma,2.27 µM
same,TGI,SK-MEL-2 melanoma,5.88 µM
same,GI50,M14 melanoma,1.54 µM
same,TGI,M14 melanoma,3.35 µM
same,GI50,OVCAR-8 ovarian,2.31 µM
same,TGI,OVCAR-8 ovarian,10.2 µM
same,GI50,SK-MEL-28 melanoma,1.57 µM
same,TGI,SK-MEL-28 melanoma,4.23 µM
same,GI50,MDA-MB-435,1.81 µM
same,TGI,MDA-MB-435,4.31 µM
same,GI50,SF-539 CNS,1.8 µM
same,TGI,SF-539 CNS,4.4 µM
same,GI50,LOX IMVI melanoma,1.47 µM
same,TGI,LOX IMVI melanoma,2.97 µM
same,GI50,A498 renal,8.29 µM
same,TGI,A498 renal,21.8 µM
same,GI50,HCT-15 colon,1.04 µM
same,TGI,HCT-15 colon,2.53 µM
same,GI50,TK-10 renal,1.18 µM
same,TGI,TK-10 renal,2.57 µM
same,GI50,OVCAR-5 ovarian,2.13 µM
same,TGI,OVCAR-5 ovarian,5.21 µM
same,GI50,UACC-257 melanoma,1.63 µM
same,TGI,UACC-257 melanoma,4.11 µM
same,GI50,786-0 renal,1.31 µM
same,TGI,786-0 renal,2.79 µM
same,GI50,CCRF-CEM leukemia,0.247 µM
same,TGI,CCRF-CEM leukemia,0.733 µM
same,GI50,HOP-62 NSCLC,12.2 µM
same,TGI,HOP-62 NSCLC,26.5 µM
same,GI50,HCT-116 colon,1.13 µM
same,TGI,HCT-116 colon,2.35 µM
same,GI50,DU-145 prostate,1.65 µM
same,TGI,DU-145 prostate,3.32 µM
same,GI50,MDA-MB-231 breast,1.49 µM
same,TGI,MDA-MB-231 breast,3.07 µM
same,GI50,HL-60(TB) leukemia,0.233 µM
same,TGI,HL-60(TB) leukemia,0.845 µM
same,GI50,SN12C renal,2.79 µM
same,TGI,SN12C renal,10.2 µM
same,GI50,MOLT-4 leukemia,0.874 µM
same,TGI,MOLT-4 leukemia,3.75 µM
same,GI50,EKVX NSCLC,2.17 µM
same,TGI,EKVX NSCLC,9.39 µM
same,GI50,SK-MEL-5 melanoma,3.97 µM
same,TGI,SK-MEL-5 melanoma,15.1 µM
same,GI50,SF-295 CNS,12.1 µM
same,TGI,SF-295 CNS,24.9 µM
same,GI50,NCI-H522 lung,0.214 µM
same,TGI,NCI-H522 lung,0.513 µM
same,GI50,UACC-62 melanoma,1.85 µM
same,TGI,UACC-62 melanoma,5.13 µM
same,GI50,OVCAR-4 ovarian,1.42 µM
same,TGI,OVCAR-4 ovarian,3.1 µM
same,GI50,NCI-H460 lung,5.38 µM
same,TGI,NCI-H460 lung,19.9 µM
same,GI50,OVCAR-3 ovarian,0.501 µM
same,TGI,OVCAR-3 ovarian,1.7 µM
same,GI50,SF-268 CNS,3.07 µM
same,TGI,SF-268 CNS,13.7 µM
same,GI50,IGROV1 ovarian,2.3 µM
same,TGI,IGROV1 ovarian,8.22 µM
same,GI50,ACHN renal,0.457 µM
same,TGI,ACHN renal,1.69 µM
same,GI50,UO-31 renal,1.04 µM
same,TGI,UO-31 renal,2.25 µM
same,GI50,RPMI-8226 leukemia,0.372 µM
same,TGI,RPMI-8226 leukemia,1.94 µM
same,GI50,T-47D breast,0.714 µM
same,TGI,T-47D breast,3.08 µM
same,GI50,NCI-H226 lung,2.65 µM
same,TGI,NCI-H226 lung,10 µM
same,GI50,HT29 colon,0.996 µM
same,TGI,HT29 colon,2.47 µM
same,GI50,HCC-2998 colon,2.96 µM
same,TGI,HCC-2998 colon,8.2 µM
same,GI50,COLO 205 colon,0.487 µM
same,TGI,COLO 205 colon,1.93 µM
same,GI50,NCI-H23 lung,2.86 µM
same,TGI,NCI-H23 lung,10.2 µM
same,GI50,A549 NSCLC,10.8 µM
same,TGI,A549 NSCLC,24.3 µM
same,GI50,NCI/ADR-RES ovarian,12.8 µM
same,TGI,NCI/ADR-RES ovarian,29.7 µM
same,GI50,SK-OV-3 ovarian,12.8 µM
same,TGI,SK-OV-3 ovarian,25.4 µM
CN(C)CCNC(=O)c1cccc2nc3c(C(=O)NCCN(C)C)cccc3nc12,TGI,PC-3 prostate,2.67 µM
same,TGI,RXF 393 renal,4.06 µM
same,TGI,HS 578T breast,7.73 µM
same,TGI,U251 CNS,11.2 µM
same,TGI,SR leukemia,3.6 µM
same,TGI,SNB-19 CNS,21.6 µM
same,TGI,BT-549 breast,15.9 µM
same,TGI,SNB-75 CNS,8.12 µM
same,TGI,SW-620 colon,12.1 µM
same,TGI,MALME-3M melanoma,3.59 µM
same,TGI,KM12 colon,8.82 µM
same,TGI,HOP-92 NSCLC,7.83 µM
same,TGI,SK-MEL-2 melanoma,4.16 µM
same,TGI,M14 melanoma,3.13 µM
same,TGI,OVCAR-8 ovarian,4.67 µM
same,TGI,SK-MEL-28 melanoma,4.64 µM
same,TGI,MDA-MB-435,2.59 µM
same,TGI,SF-539 CNS,6.64 µM
same,TGI,LOX IMVI melanoma,1.49 µM
same,TGI,A498 renal,4.61 µM
same,TGI,HCT-15 colon,16.5 µM
same,TGI,TK-10 renal,6.81 µM
same,TGI,OVCAR-5 ovarian,13.6 µM
same,TGI,UACC-257 melanoma,4.08 µM
same,TGI,786-0 renal,9.88 µM
same,TGI,CAKI-1 renal,> 100 µM
same,TGI,CCRF-CEM leukemia,12.7 µM
same,TGI,HOP-62 NSCLC,5.12 µM
same,TGI,HCT-116 colon,13.4 µM
same,TGI,DU-145 prostate,12.8 µM
same,TGI,MDA-MB-231 breast,3.4 µM
same,TGI,HL-60(TB) leukemia,3.96 µM
same,TGI,SN12C renal,5.58 µM
same,TGI,MOLT-4 leukemia,14.7 µM
same,TGI,EKVX NSCLC,3.76 µM
same,TGI,SK-MEL-5 melanoma,3.02 µM
same,TGI,SF-295 CNS,6.46 µM
same,TGI,NCI-H522 lung,1.81 µM
same,TGI,UACC-62 melanoma,9.6 µM
same,TGI,OVCAR-4 ovarian,2.24 µM
same,TGI,NCI-H460 lung,7.91 µM
same,TGI,OVCAR-3 ovarian,8.67 µM
same,TGI,K-562 leukemia,12.5 µM
same,TGI,SF-268 CNS,4.84 µM
same,TGI,IGROV1 ovarian,> 23.3 µM
same,TGI,ACHN renal,22.3 µM
same,TGI,UO-31 renal,34.1 µM
same,TGI,RPMI-8226 leukemia,> 23.6 µM
same,TGI,T-47D breast,34.5 µM
same,TGI,NCI-H226 lung,5.66 µM
same,TGI,HT29 colon,3.49 µM
same,TGI,HCC-2998 colon,4.12 µM
same,TGI,COLO 205 colon,1.87 µM
same,TGI,NCI-H23 lung,5.76 µM
same,TGI,A549 NSCLC,6.01 µM
same,TGI,NCI/ADR-RES ovarian,> 58.1 µM
